Here are results for 3 substances from patent US20260167621A1, “Three Cluster Galactose Type Compound, Conjugate, Making Method and Use Thereof” (GUANGZHOU RIBOBIO CO., LTD., priority 2023, published 2026).

In the series the test system is PCSK9 mRNA. As to the kind of experiment: Knock down effect on the expression of PCSK9 mRNA in Hep3B cell. It is filed as cell-based, human. Conditions: Lipofectamine 3000 transfection, qPCR, actin as reference gene. The method, then:
Referring to Chinese Patent Application No. CN109957567B, the synthesized siRNA sequences were shown below:
The compound G2, G4, G5 obtained from the examples 2, 4, 5, bound to the above mentioned siRNA respectively to form conjugates which were shown in Table 4.
Hep3B cell (ATCC, HB-8064) was cultured, the cell density was about 30% to 50% before transfection and relatively uniformly.
Each conjugate samples of Table 4 were prepared to 20 μM storage solution, and were set as experimental groups. Except the experimental groups, normal cell control group (Blank), transfection reagent control group (Mock), negative control group 1 (NC001, Ribobio, siM21 1215011852) and negative control group 2 (NC002, Ribobio, siM21 1215011852) were also set. Referring to the specification of Lipofectamine™ 3000 transfection reagent (Thermo Fisher, L300001), cells were transfected. Both the experimental groups and the control groups had 3 replicates.
The total RNA extraction was performed with reference to the specification of MagZol Reagent (Magen, R4801).
The reverse transcription was performed with reference to the specification of riboSCRIPT™ Reverse Transcription Kit (Ribobio, C11027-2).
Human house keeping gene actin was used for reference gene, forward primer sequence of actin gene: 5′-[…]-3′ (SEQ ID NO: 5), reverse primer sequence: 5′-[…]-3′ (SEQ ID NO: 6); forward primer sequence of human PCSK9 gene: 5′-[…]-3′ (SEQ ID NO: 7), reverse primer sequence: 5′-[…]-3′ (SEQ ID NO: 8). 2×SYBR Green Mix (Ribobio, C10712F −1 m l) and fluorescence quantitative PCR instrument (BioRad, CFX96) were used to perform real time fluorescence quantitative PCR reaction. After PCR reaction, the Ct deviation of 9 replicates of a sample (3 transfection replicates×3 qPCR duplicates) should be ±0.5. Then CFX 2.1 software was used for quantitative analysis.
On the technique in general: In qPCR the cycle at which signal appears reflects the starting amount.
Consider “G2-34: G2 bound to 5' end of SEQ ID NO: 3, paired with 5'-phos* SEQ ID NO: 4 (PCSK9 siRNA); structure Z2 (sense GGUCUGGAAUGCAAAGUCA; antisense UGACUUUGCAUUCCAGACC; G2 ligand 5'; 5'-phosphate; modified_base join(1,4,5,6,10,11,12,13,14,15,16) OTHER; 2'-O-methyl modification; modified_base join(2,3,17,18,19) OTHER; thiophosphorylated skeleton modification and 2'-O-methyl modification; modified_base join(7,8,9) OTHER; 2'-fluoro modification; modified_base join(1,5,7,9,11,13,15) OTHER; modified_base join(3,17,18,19) OTHER; modified_base 2 OTHER; thiophosphorylated skeleton modification and 2'-fluoro modification; modified_base join(4,6,8,10,12,14,16) OTHER) [Compound G2-34]”, for which the “PCSK9 mRNA relative expression value, the average relative expression” value is 0.34. With “G4-34: G4 bound to 5' end of SEQ ID NO: 3 via C6 amino modification, paired with 5'-phos* SEQ ID NO: 4; structure Z4 (sense GGUCUGGAAUGCAAAGUCA; antisense UGACUUUGCAUUCCAGACC; G4 ligand via C6 amino; 5'-phosphate; modified_base join(1,4,5,6,10,11,12,13,14,15,16) OTHER; 2'-O-methyl modification; modified_base join(2,3,17,18,19) OTHER; thiophosphorylated skeleton modification and 2'-O-methyl modification; modified_base join(7,8,9) OTHER; 2'-fluoro modification; modified_base join(1,5,7,9,11,13,15) OTHER; modified_base join(3,17,18,19) OTHER; modified_base 2 OTHER; thiophosphorylated skeleton modification and 2'-fluoro modification; modified_base join(4,6,8,10,12,14,16) OTHER) [Compound G4-34]” the figure was 0.41; with “G5-34: G5 bound to 5' end of SEQ ID NO: 3 via C6 amino modification, paired with 5'-phos* SEQ ID NO: 4; structure Z5 (sense GGUCUGGAAUGCAAAGUCA; antisense UGACUUUGCAUUCCAGACC; G5 ligand via C6 amino; 5'-phosphate; modified_base join(1,4,5,6,10,11,12,13,14,15,16) OTHER; 2'-O-methyl modification; modified_base join(2,3,17,18,19) OTHER; thiophosphorylated skeleton modification and 2'-O-methyl modification; modified_base join(7,8,9) OTHER; 2'-fluoro modification; modified_base join(1,5,7,9,11,13,15) OTHER; modified_base join(3,17,18,19) OTHER; modified_base 2 OTHER; thiophosphorylated skeleton modification and 2'-fluoro modification; modified_base join(4,6,8,10,12,14,16) OTHER) [Compound G5-34]”, 0.33.
